Here are results for ten compounds from ChEMBL document CHEMBL1153309, “Synthesis and biological evaluation of platensimycin analogs” (Bioorg Med Chem Lett, 2009).

The target of test [1] is T1, 3-oxoacyl-[acyl-carrier-protein] synthase 2 (Staphylococcus aureus, UniProt Q5TKS0).
T1 sequence (Q5TKS0 whole entry): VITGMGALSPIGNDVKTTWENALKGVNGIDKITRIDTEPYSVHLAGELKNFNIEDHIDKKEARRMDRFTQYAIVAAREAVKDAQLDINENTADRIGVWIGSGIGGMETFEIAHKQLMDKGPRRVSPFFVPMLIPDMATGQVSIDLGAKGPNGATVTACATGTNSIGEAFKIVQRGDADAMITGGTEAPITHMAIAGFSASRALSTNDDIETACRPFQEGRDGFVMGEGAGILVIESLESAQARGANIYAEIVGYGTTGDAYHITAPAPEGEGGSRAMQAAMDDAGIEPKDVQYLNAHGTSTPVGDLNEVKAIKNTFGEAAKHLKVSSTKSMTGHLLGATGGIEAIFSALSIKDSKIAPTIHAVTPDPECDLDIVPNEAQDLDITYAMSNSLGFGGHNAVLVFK
In words: Inhibition of FabF-mediated type 2 fatty acid synthesis in Staphylococcus aureus by cell free assay.

Test [2] relates to Staphylococcus aureus. In words: Antibacterial activity against antisense fabH/fabF sensitized Staphylococcus aureus assessed as minimum concentration required to show differential zone of fabF antisense strain clearance by two plate differential sensitivity assay. Type of test: functional.
Test [3] has as its system Staphylococcus aureus. In words: Antimicrobial activity against wild type Staphylococcus aureus. It is filed as functional.

In brackets after ≈: the same amount, converted by molar mass.

Take `CC1=CC(=O)[C@@](C)(CCC(=O)Nc2c(O)ccc(C(=O)O)c2O)C2C3CC4CC12CC4(C)O3` (stereo not given in full): in test [1], half-maximal inhibition (IC50) required 5.27 µM. In addition, in test [2], the Activity amounted to 0.03 µg/mL. In addition, 4 µg/mL (≈ 8.78 µM) was the least that counted as inhibitory in test [3] (MIC).

In the case of `CN1CC23CC4CC(OC4(C)C2)C3[C@](C)(CCC(=O)Nc2c(O)ccc(C(=O)O)c2O)C1=O` (stereo not given in full), the IC50 (in general, the concentration that inhibits the measured activity by half) in test [1] is > 436 µM. Further, the Activity in test [2] was >2.7 µg/mL. Further, the MIC (in general, the lowest concentration found to suppress growth) in test [3] is > 64 µg/mL.

`CC1CC(=O)[C@@](C)(CCC(=O)Nc2c(O)ccc(C(=O)O)c2O)C2C3CC4CC12CC4(C)O3` (stereo not given in full) had an IC50 in test [1] of 28.4 µM. Also, in test [2], the Activity was <20 µg/mL. The MIC in test [3] worked out at 4 µg/mL (≈ 8.74 µM).

In test [1], `CC12CC34CC1CC(O2)C3[C@](C)(CCC(=O)Nc1c(O)ccc(C(=O)O)c1O)C(=O)CC4c1ccccc1` (stereo not given in full) [PHENYL DIHYDROPLATENSIMYCIN] showed an IC50 of 7.7 µM. Further, the Activity in test [2] is <20 µg/mL. Moreover, in test [3], the minimal inhibitory concentration (MIC) worked out at 4 µg/mL (≈ 7.7 µM).

On to `CC12C[C@@]34C=CC(=O)[C@@](C)(CCC(=O)Nc5c(O)ccc(C(=O)O)c5O)C3[C@H](CC1C4)O2` (stereo not given in full) [PLATENSIMYCIN], for which inhibition in test [1] was half-maximal at 1.13 µM (IC50). Further, the Activity in test [2] came out at 0.01 µg/mL. Also, the MIC in test [3] came to 0.5 µg/mL (≈ 1.13 µM).

Consider `CC12CC34Cc5cnoc5[C@@](C)(CCC(=O)Nc5c(O)ccc(C(=O)O)c5O)C3C(CC1C4)O2` (stereo not given in full), for which, in test [1], the IC50 is 22.4 µM. The Activity in test [2] was found to be 0.3 µg/mL. In test [3], this compound showed an MIC of 16 µg/mL (≈ 34.2 µM).

Consider `CC12CC34CCC(=O)[C@@](C)(CCC(=O)Nc5c(O)ccc(C(=O)O)c5O)C3C(CC1C4)O2` (stereo not given in full) [DIHYDROPLATENSIMYCIN], for which half-maximal inhibition in test [1] (IC50) required 4.51 µM. The Activity in test [2] came out at 0.4 µg/mL. In test [3], this compound returned an MIC of 2 µg/mL (≈ 4.51 µM).

In turn, `CC12CC34COC(=O)[C@@](C)(CCC(=O)Nc5c(O)ccc(C(=O)O)c5O)C3C(CC1C4)O2` (stereo not given in full) showed an IC50 in test [1] of 165 µM. The Activity in test [2] was >2.7 µg/mL. The minimal inhibitory concentration (MIC) in test [3] was > 64 µg/mL.

The compound `CC12CC34CC1CC(O2)C3[C@](C)(CCC(=O)Nc1c(O)ccc(C(=O)O)c1O)C(=O)[C@@H]1C[C@@H]14` (stereo not given in full) had a concentration for half-maximal inhibition (IC50) in test [1] of 20.9 µM. In test [2], the Activity is 0.1 µg/mL. The compound also gave an MIC in test [3] of 1 µg/mL (≈ 2.2 µM).

In the case of `Cn1ncc2c1[C@@](C)(CCC(=O)Nc1c(O)ccc(C(=O)O)c1O)C1C3CC4CC1(C2)CC4(C)O3` (stereo not given in full), the IC50 in test [1] is 156 µM. The Activity in test [2] is >2.7 µg/mL. In test [3], the minimum inhibitory concentration (MIC) was > 64 µg/mL.
